# Experimental data from patent US10450318B2, “CXCR4 receptor antagonists” (BRISTOL-MYERS SQUIBB COMPANY, priority 2015, dated 2019).
# Molecular target: T1, CXCR4 receptors (Homo sapiens, UniProt P61073)
# T1 construct: expressing endogenous CXCR4 receptors; endogenous in cells; host or cells: CCRF-CEM (human T lymphoblast cells)
# Experiment: CXCR4-CEM calcium flux assay, antagonist mode (inhibition of SDF-1α-induced calcium flux)
# Assay type: cell-based
# Details: inhibition of calcium flux induced by 4 nM SDF-1α in CCRF-CEM cells
# Summary of the method: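 CCRF-CEM cells were preincubated with compound (0.5% DMSO) for 25 min at room temperature, then stimulated with 4 nM SDF-1α. The resulting calcium flux was recorded by FDSS for 90 sec. Percent inhibition was calculated against an internal control compound, and background-corrected EC50 values were derived.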
# T1 sequence (P61073 whole entry): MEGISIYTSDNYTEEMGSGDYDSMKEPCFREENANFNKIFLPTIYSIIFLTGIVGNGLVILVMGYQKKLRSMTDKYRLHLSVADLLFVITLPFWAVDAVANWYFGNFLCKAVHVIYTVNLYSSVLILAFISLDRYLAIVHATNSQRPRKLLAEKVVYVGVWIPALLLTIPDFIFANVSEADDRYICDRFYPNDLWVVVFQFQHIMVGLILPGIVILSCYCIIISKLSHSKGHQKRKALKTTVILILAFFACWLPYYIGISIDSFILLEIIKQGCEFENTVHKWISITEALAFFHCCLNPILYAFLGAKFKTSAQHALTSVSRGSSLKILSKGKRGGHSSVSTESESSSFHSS
row,Structure (SMILES),IC50 [nM]
1,"CN(Cc1cn2c(N3CCN(Cc4ccccc4O)CC3)nccc2n1)[C@H]1CCCc2cccnc21 [Example 59, 2-({4-[2-({methyl[(S)-5,6,7,8-tetrahydroquinolin-8-yl]amino}methyl)imidazo[1,2-c]pyrimidin-5-yl]piperazin-1-yl}methyl)phenol]",25
2,"CN(C)c1ccc(CN2CCN(c3nccc4nc(CN(C)[C@H]5CCCc6cccnc65)cn34)CC2)cc1 [Example 60, (8S)-N-{[5-(4-{[4-(dimethylamino)phenyl]methyl}piperazin-1-yl)imidazo[1,2-c]pyrimidin-2-yl]methyl}-N-methyl-5,6,7,8-tetrahydroquinolin-8-amine]",7.6
3,"CN(Cc1cn2c(N3CCN(CCc4ccc(O)cc4)CC3)nccc2n1)[C@H]1CCCc2cccnc21 [Example 61, 4-(2-{4-[2-({methyl[(S)-5,6,7,8-tetrahydroquinolin-8-yl]amino}methyl)imidazo[1,2-c]pyrimidin-5-yl]piperazin-1-yl}ethyl)phenol]",33
4,"CN(Cc1cn2c(N3CCN(S(=O)(=O)c4cccs4)CC3)nccc2n1)[C@H]1CCCc2cccnc21 [Example 62, (S)-N-methyl-N-({5-[4-(thiophene-2-sulfonyl)piperazin-1-yl]imidazo[1,2-c]pyrimidin-2-yl}methyl)-5,6,7,8-tetrahydroquinolin-8-amine]",19600
5,"CN(Cc1cn2c(N3CCN(S(=O)(=O)c4ccccc4)CC3)nccc2n1)[C@H]1CCCc2cccnc21 [Example 63, (S)-N-({5-[4-(benzenesulfonyl)piperazin-1-yl]imidazo[1,2-c]pyrimidin-2-yl}methyl)-N-methyl-5,6,7,8-tetrahydroquinolin-8-amine]",16700
6,"CN(Cc1cn2c(N3CCN(Cc4ccc(C(F)(F)F)cc4)CC3)nccc2n1)[C@H]1CCCc2cccnc21 [Example 64, (S)-N-methyl-N-{[5-(4-{[4-(trifluoromethyl)phenyl]methyl}piperazin-1-yl)imidazo[1,2-c]pyrimidin-2-yl]methyl}-5,6,7,8-tetrahydroquinolin-8-amine]",11
7,"CC(CCN1CCN(c2nccc3nc(CN(C)[C@H]4CCCc5cccnc54)cn23)CC1)c1ccccc1 (stereo partly drawn) [Example 65, (S)-N-methyl-N-({5-[4-(3-phenylbutyl)piperazin-1-yl]imidazo[1,2-c]pyrimidin-2-yl}methyl)-5,6,7,8-tetrahydroquinolin-8-amine]",16
8,"CN(Cc1cn2c(N3CCN(Cc4cccc(C#N)c4)CC3)nccc2n1)[C@H]1CCCc2cccnc21 [Example 66, 3-({4-[2-({methyl[(S)-5,6,7,8-tetrahydroquinolin-8-yl]amino}methyl)imidazo[1,2-c]pyrimidin-5-yl]piperazin-1-yl}methyl)benzonitrile]",9.4
9,"CN(Cc1cn2c(N3CCN(Cc4nccs4)CC3)nccc2n1)[C@H]1CCCc2cccnc21 [Example 67, (S)-N-methyl-N-({5-[4-(1,3-thiazol-2-ylmethyl)piperazin-1-yl]imidazo[1,2-c]pyrimidin-2-yl}methyl)-5,6,7,8-tetrahydroquinolin-8-amine]",42
10,"CN(Cc1cn2c(N3CCN(C(=O)Nc4cccc(Cl)c4)CC3)nccc2n1)[C@H]1CCCc2cccnc21 [Example 68, N-(3-chlorophenyl)-4-[2-({methyl[(S)-5,6,7,8-tetrahydroquinolin-8-yl]amino}methyl)imidazo[1,2-c]pyrimidin-5-yl]piperazine-1-carboxamide]",50
11,"CN(Cc1cn2c(N3CCN(Cc4cccc(O)c4)CC3)nccc2n1)[C@H]1CCCc2cccnc21 [Example 69, 3-({4-[2-({methyl[(S)-5,6,7,8-tetrahydroquinolin-8-yl]amino}methyl)imidazo[1,2-c]pyrimidin-5-yl]piperazin-1-yl}methyl)phenol]",3.8
12,"CN(Cc1cn2c(N3CCNCC3)nccc2n1)[C@H]1CCOc2cccnc21 [Example 70, (S)—N-Methyl-N-((5-(piperazin-1-yl)imidazo[1,2-c]pyrimidin-2-yl)methyl)-3,4-dihydro-2H-pyrano[3,2-b]pyridin-4-amine]",4.2
13,"CN(Cc1nc2ccnc(N3CCNCC3)n2c1CO)[C@H]1CCOc2cccnc21 [Example 71, (S)-(2-(((3,4-Dihydro-2H-pyrano[3,2-b]pyridin-4-yl)(methyl)amino)methyl)-5-(piperazin-1-yl)imidazo[1,2-c]pyrimidin-3-yl)methanol]",2.7
14,"CN(Cc1cn2c(N3CCNCC3)nc(Cl)cc2n1)[C@H]1CCCc2cccnc21 [Example 72, (S)—N-((7-Chloro-5-(piperazin-1-yl)imidazo[1,2-c]pyrimidin-2-yl)methyl)-N-methyl-5,6,7,8-tetrahydroquinolin-8-amine]",330
15,"C[C@@H]1CN(c2nccc3nc(CN(C)[C@H]4CCCc5cccnc54)cn23)C[C@H](C)N1 [Example 73, (S)—N-((5-((3S,5R)-3,5-Dimethylpiperazin-1-yl)imidazo[1,2-c]pyrimidin-2-yl)methyl)-N-methyl-5,6,7,8-tetrahydroquinolin-8-amine]",120
16,"CN(Cc1cn2c(N3CCC(N)C3)nccc2n1)[C@H]1CCCc2cccnc21 (stereo partly drawn) [Example 74, (8S)-N-((5-(3-aminopyrrolidin-1-yl)imidazo[1,2-c]pyrimidin-2-yl)methyl)-N-methyl-5,6,7,8-tetrahydroquinolin-8-amine]",79
17,"CN(Cc1cn2c(N3CCN4CCC[C@H]4C3)nccc2n1)[C@H]1CCCc2cccnc21 [Example 76, (S)-N-((5-((S)-hexahydropyrrolo[1,2-a]pyrazin-2(1H)-yl)imidazo[1,2-c]pyrimidin-2-yl)methyl)-N-methyl-5,6,7,8-tetrahydroquinolin-8-amine]",6.4
18,"CN(Cc1cn2c(N3CCNC[C@H]3CO)nccc2n1)[C@H]1CCCc2cccnc21 [Example 77, ((S)-1-(2-((methyl((S)-5,6,7,8-tetrahydroquinolin-8-yl)amino)methyl)imidazo[1,2-c]pyrimidin-5-yl)piperazin-2-yl)methanol]",250
19,"CN(Cc1cn2c(N3CC4CNCC4C3)nccc2n1)[C@H]1CCCc2cccnc21 (stereo partly drawn) [Example 80, (8S)-N-((5-(hexahydropyrrolo[3,4-c]pyrrol-2(1H)-yl)imidazo[1,2-c]pyrimidin-2-yl)methyl)-N-methyl-5,6,7,8-tetrahydroquinolin-8-amine]",23
20,"CN1CC2CN(c3nccc4nc(CN(C)[C@H]5CCCc6cccnc65)cn34)CC2C1 (stereo partly drawn) [Example 81, (8S)-N-methyl-N-((5-(5-methylhexahydropyrrolo[3,4-c]pyrrol-2(1H)-yl)imidazo[1,2-c]pyrimidin-2-yl)methyl)-5,6,7,8-tetrahydroquinolin-8-amine]",32
21,"CN(Cc1cn2c(N3CCn4cnnc4C3)nccc2n1)[C@H]1CCCc2cccnc21 [Example 82, (S)-N-((5-(5,6-dihydro-[1,2,4]triazolo[4,3-a]pyrazin-7(8H)-yl)imidazo[1,2-c]pyrimidin-2-yl)methyl)-N-methyl-5,6,7,8-tetrahydroquinolin-8-amine]",3780
22,"CN(Cc1cn2c(N3CCn4ccnc4C3)nccc2n1)[C@H]1CCCc2cccnc21 [Example 83, (S)-N-((5-(5,6-dihydroimidazo[1,2-a]pyrazin-7(8H)-yl)imidazo[1,2-c]pyrimidin-2-yl)methyl)-N-methyl-5,6,7,8-tetrahydroquinolin-8-amine]",150
23,"CN(Cc1cn2c(N3CCN(CC(F)(F)F)CC3)nccc2n1)[C@H]1CCCc2cccnc21 [Example 84, (S)-N-methyl-N-((5-(4-(2,2,2-trifluoroethyl)piperazin-1-yl)imidazo[1,2-c]pyrimidin-2-yl)methyl)-5,6,7,8-tetrahydroquinolin-8-amine]",> 16000
24,"CN(Cc1cn2c(N3CCN[C@@H](CO)C3)nccc2n1)[C@H]1CCCc2cccnc21 [Example 85, ((R)-4-(2-((methyl((S)-5,6,7,8-tetrahydroquinolin-8-yl)amino)methyl)imidazo[1,2-c]pyrimidin-5-yl)piperazin-2-yl)methanol]",1.7
25,"CN(Cc1cn2c(N3CCN[C@H](CO)C3)nccc2n1)[C@H]1CCCc2cccnc21 [Example 86, ((S)-4-(2-((methyl((S)-5,6,7,8-tetrahydroquinolin-8-yl)amino)methyl)imidazo[1,2-c]pyrimidin-5-yl)piperazin-2-yl)methanol]",1.7
26,"CN(Cc1cn2c(N3CCN4C[C@@H](F)C[C@H]4C3)nccc2n1)[C@H]1CCCc2cccnc21 [Example 87, (S)-N-((5-((7S,8aS)-7-fluorohexahydropyrrolo[1,2-a]pyrazin-2(1H)-yl)imidazo[1,2-c]pyrimidin-2-yl)methyl)-N-methyl-5,6,7,8-tetrahydroquinolin-8-amine]",200
27,"CN(Cc1cn2c(N3CC4CNC4C3)nccc2n1)[C@H]1CCCc2cccnc21 (stereo partly drawn) [Example 88, (8S)-N-((5-(3,6-diazabicyclo[3.2.0]heptan-3-yl)imidazo[1,2-c]pyrimidin-2-yl)methyl)-N-methyl-5,6,7,8-tetrahydroquinolin-8-amine]",220
28,"CN(Cc1cn2c(N3CC4CNC4C3)nccc2n1)[C@H]1CCCc2cccnc21 (stereo partly drawn) [Example 89, (8S)-N-((5-(3,6-diazabicyclo[3.2.0]heptan-3-yl)imidazo[1,2-c]pyrimidin-2-yl)methyl)-N-methyl-5,6,7,8-tetrahydroquinolin-8-amine]",280
29,"CN(Cc1cn2c(N3CCN4CCCCC4C3)nccc2n1)[C@H]1CCCc2cccnc21 (stereo partly drawn) [Example 90, (8S)-N-methyl-N-((5-(octahydro-2H-pyrido[1,2-a]pyrazin-2-yl)imidazo[1,2-c]pyrimidin-2-yl)methyl)-5,6,7,8-tetrahydroquinolin-8-amine]",2.5
30,"CN(Cc1cn2c(N3CC4CCNC4C3)nccc2n1)[C@H]1CCCc2cccnc21 (stereo partly drawn) [Example 93, (8S)-N-((5-(hexahydropyrrolo[3,4-b]pyrrol-5(1H)-yl)imidazo[1,2-c]pyrimidin-2-yl)methyl)-N-methyl-5,6,7,8-tetrahydroquinolin-8-amine]",27
